The values below come from patent US7285680B2, “β-alanine derivatives and the use thereof” (Ono Pharmaceutical Co., Ltd., priority 2002, dated 2007).

What is called IC50 is the concentration that gives 50% inhibition.

The target in the experiment is human EDG-2 (Homo sapiens, UniProt Q92633). Kind of experiment: Evaluation of EDG-2 antagonistic activity by monitoring the change of intracellular calcium ion concentration. Type of experiment: cell-based. As to conditions: CHO cells overexpressing human EDG-2 gene; LPA final concentration 100 nM; Fura2-AM intracellular calcium; compound 1 nM to 10 μM. The method, then: Evaluation of EDG-2 Antagonistic Activity by Monitoring the Change of Intracellular Calcium Ion Concentration
Sequence of human EDG-2 (Q92633 whole entry): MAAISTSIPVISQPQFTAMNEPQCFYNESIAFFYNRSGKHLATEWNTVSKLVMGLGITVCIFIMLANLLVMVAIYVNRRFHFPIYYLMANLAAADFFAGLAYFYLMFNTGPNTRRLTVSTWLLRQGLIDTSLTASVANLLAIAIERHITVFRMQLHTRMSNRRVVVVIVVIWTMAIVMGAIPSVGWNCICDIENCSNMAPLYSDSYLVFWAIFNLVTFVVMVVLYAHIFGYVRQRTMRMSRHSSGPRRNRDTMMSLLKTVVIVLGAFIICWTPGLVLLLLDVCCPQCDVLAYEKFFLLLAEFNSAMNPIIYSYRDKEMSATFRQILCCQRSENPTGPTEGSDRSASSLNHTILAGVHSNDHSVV
Evaluation of EDG-2 antagonistic activity was carried out by using Chinese hamster ovary (CHO) cells which overexpressed human EDG-2 gene. Those cells were cultured with Ham's F12 medium (GIBCO BRL company No.11765-047) containing 10% FBS (fetal bovine serum), penicillin/streptomycin and blasticidin (5 μg/ml). At first in order to uptake Fura2-AM (Dojindo company No.348-05831) into the cells, cells were incubated for 60 minutes at 37 degrees in Fura2-AM (5 μM) solution [Ham's F12 medium containing 10% FBS, 20 mM HEPES buffer (pH 7.4) and 2.5 mM probenecid (Sigma company No.P-8761)]. […] Plates were set in fluorescent drug screening system (Hamamatsu photonics company, FDSS-2000) and intracellular calcium ion concentration was measured for 30 seconds with no stimulation and then solution of the compound of the present invention represented by formula (I) was added. Five minutes after adding thereto LPA (final concentration: 100 nM) was added, the increase of intracellular calcium ion concentrations before and after the addition of LPA (excitation wave length: […]; fluorescent wave length: 500 nm) were measured every 3 seconds. […]
For orientation: Calcium flux is commonly read through the fluorescence of an indicator in the cells.

`COc1ccc(OC)c(CCN(CCC(=O)O)C(=O)c2ccccc2-c2ccccc2C(=O)NCc2cccnc2)c1` [Example 3(1), 3-(N-((2-(2-((pyridin-3-ylmethylamino)carbonyl)phenyl)phenyl)carbonyl)-N-(2-(2,5-dimethoxyphenyl)ethyl)amino)propanoic acid]: the concentration for half-maximal inhibition (IC50) is 780 nM.

Turning to `COc1ccc(OC)c(CCN(CCC(=O)O)C(=O)c2ccccc2-c2ccccc2C(=O)NCc2ccc(Cl)cc2)c1` [Example 3, 3-(N-((2-(2-((4-chlorobenzylamino)carbonyl)phenyl)phenyl)carbonyl)-N-(2-(2,5-dimethoxyphenyl)ethyl)amino)propanoic acid], the 50% inhibitory concentration (IC50) worked out at 410 nM.
